pEC50: −log10 of the molar value.
Assays:
[1] = Metabolic stability evaluation in human liver microsome; assay type: in vitro ADME; conditions: liver microsomes, pH 7.4; human liver microsome 0.2 mg/mL protein, test compound 1 μmol/L, β-NADPH, 37° C., 30 min; average of two samples; read-out: hCLint (converted)
Method: Human liver microsome (pool of 50 donors) was purchased from XenoTech. A reaction mixture containing phosphate buffer (100 mmol/L, pH 7.4), ethylenediamine tetraacetic acid (0.1 mmol/L), magnesium chloride (6 mmol/L), human liver microsome (0.2 mg/mL protein) and test compound (1 μmol/L) was prepared. The reaction mixture was preincubated at 37° C. for 5 min, β-NADPH (1 mmol/L) was added and the mixture was incubated at 37° C. for 30 min. The protein was removed with acetonitrile from the sample after the reaction and the sample was measured by LC-MS/MS. The ratio of the organic solvent in the reaction mixture was set to about 0.5%, and the reaction was performed in 2 samples.
The elimination rate constant (ke) was calculated from the linear regression of the logarithm plot of the residual ratio of the test compound and at 30 min after the reaction, and the liver inherent clearance (Cint) was calculated by the following formula.
[formula] ke: elimination rate constant (1/h) a: concentration (mg/mL) of liver microsome in the reaction mixture b: liver microsome amount per liver unit weight (32.3 mg/g liver) c: liver weight per unit body weight (25.7 g liver/kg body weight) Each test compound was tested in two samples, and the average thereof was calculated.

[2] = molecular target: T1, GAL4-PPAR γ chimeric nuclear receptor (human PPAR γ ligand binding domain) (Homo sapiens, UniProt P37231); assay: PPAR γ transactivation assay by transient gene transfer (GAL4-PPAR γ chimeric receptor, luciferase reporter, HEK293EBNA cells); assay type: cell-based; conditions: concentration showing 50% of efficacy (maximum activity rate relative to pioglitazone = 100%), 24 hr
T1 construct: expressed in transfected cells; host or cells: HEK293EBNA cells, transient transfection with SuperFect
T1 sequence (P37231 174-475 isoform P37231-2): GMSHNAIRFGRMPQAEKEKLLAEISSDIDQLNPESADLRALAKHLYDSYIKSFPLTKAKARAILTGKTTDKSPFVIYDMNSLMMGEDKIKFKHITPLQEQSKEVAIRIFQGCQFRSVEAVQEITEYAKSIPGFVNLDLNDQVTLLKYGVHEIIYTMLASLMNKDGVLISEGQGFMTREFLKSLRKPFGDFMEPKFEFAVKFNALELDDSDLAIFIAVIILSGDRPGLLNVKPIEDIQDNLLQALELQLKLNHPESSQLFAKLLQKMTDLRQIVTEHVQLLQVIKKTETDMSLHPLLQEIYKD
Method: The agonist activity of the test compound to PPAR γ was determined by a transactivation assay method using a chimeric nuclear receptor of a DNA binding region of a yeast transcription factor GAL4 and a PPAR γ ligand binding region. Specifically, the PPAR γ agonist activity of the test compound was evaluated by the following method based on the method of Lehmann et al. (J Biol. Chem., 1995, vol. 270, page 12953).
HEK293EBNA cells cultured in Dulbecco's Modified Eagle medium (Invitrogen) containing 10 v/v % fetal bovine serum (Invitrogen) were used. 30 mL of the above-mentioned cells (density: 1×10^5 cells/mL) were inoculated in a […] (Iwaki Glass), and cultured overnight. Using SuperFect Transfection Reagent (QIAGEN), a plasmid expressing a GAL4-PPAR γ chimeric nuclear receptor fusing 174-475 amino acids, which are human PPAR γ ligand binding domain, and 1-147 amino acids, which are GAL4 DNA binding domain, and a reporter plasmid expressing a GAL4 responsive luciferase were transiently introduced into the cells at a proportion of 4:1. After 5 hr from transfection, the cells were detached from the culture dish, and the detached cells (density: 2×10^4 cells/mL) were inoculated by 100 μL in each well of a 96 well white plate (SUMITOMO BAKELITE), and cultured overnight. The medium was removed, the test compound diluted in various concentrations with serum-free Dulbecco's Modified Eagle medium was added by 100 μL, and the mixture was reacted under a 5% carbon dioxide gas stream (5% CO2) at 37° C. for 24 hr. On the other hand, as a positive control, 10 μmol/L of pioglitazone (100 μL) was added, and the mixture was reacted under a 5% carbon dioxide gas stream (5% CO2) at 37° C. for 24 hr. As a substrate of luciferase, 100 μL of Steady-Glo (Promega) was added to each well and the mixture was thoroughly stirred. Immediately thereafter, the chemical luminescence due to luciferase was measured using TopCount NTX (Packard).
The agonist activity (activity rate (%)) of the test compound to PPAR γ was calculated according to the following formula, as a relative activity when the agonist activity on addition of pioglitazone ([…]) was 100%.

SMILES	CLint scaled at 1 μmol/L [1]	pEC50 [2]
[2H]C([2H])([2H])Oc1cccn2c(Cc3ccc4c(c3)COc3cc(F)ccc3/C4=C(\C)c3noc(=O)[nH]3)c(C3CC3)nc12 [Compound 9h, (E)-3-[1-(8-{[2-cyclopropyl-8-(methoxy-d3)-imidazo[1,2-a]pyridin-3-yl]methyl}-3-fluorodibenzo[b,e]oxepin-11(6H)-ylidene)ethyl]-1,2,4-oxadiazol-5(4H)-one]	25 mL/min/kg	7.92
O=c1[nH]c(/C(=C2\c3ccc(Cc4c(C5CC5)nc5ccccn45)cc3COc3cc(F)ccc32)C2CC2)no1 [Compound 12c]	65 mL/min/kg	7.11
CCCc1nc2ccccc2n1Cc1ccc2c(c1)COc1cc(F)ccc1/C2=C(/c1noc(=O)[nH]1)C1CC1 [Compound 4g, (E)-3-(cyclopropyl{3-fluoro-8-[(2-propyl-1H-benzo[d]imidazol-1-yl)methyl]dibenzo[b,e]oxepin-11(6H)-ylidene}methyl)-1,2,4-oxadiazol-5(4H)-one]	78.3 mL/min/kg	7.26
[2H]C([2H])([2H])Oc1cccc2c1nc(COC)n2Cc1ccc2c(c1)COc1cc(F)ccc1/C2=C(\C)c1noc(=O)[nH]1 [Compound 2a, (E)-3-[1-(3-fluoro-8-{[4-(methoxy-d3)-2-(methoxymethyl)-1H-benzo[d]imidazol-1-yl]methyl}dibenzo[b,e]oxepin-11(6H)-ylidene)ethyl]-1,2,4-oxadiazol-5(4H)-one]	7.33 mL/min/kg	7.34
C/C(=C1/c2ccc(Cn3c(CN(C)C)nc4ccccc43)cc2COc2cc(F)ccc21)c1noc(=O)[nH]1 [Compound 4a, (E)-3-{1-[8-({2-[(dimethylamino)methyl]-1H-benzo[d]imidazol-1-yl}methyl)-3-fluorodibenzo[b,e]oxepin-11(6H)-ylidene]ethyl}-1,2,4-oxadiazol-5(4H)-one]	31.7 mL/min/kg	7.47
C/C(=C1/c2ccc(Cc3c(C)nc4cc(C5CC5)ccn34)cc2COc2cc(F)ccc21)c1noc(=O)[nH]1 [Compound 14g, (E)-3-(1-{8-[(7-cyclopropyl-2-methylimidazo[1,2-a]pyridin-3-yl)methyl]-3-fluorodibenzo[b,e]oxepin-11(6H)-ylidene}ethyl)-1,2,4-oxadiazol-5(4H)-one]	28.3 mL/min/kg	6.89
CCCc1nc2c(C)nccn2c1Cc1ccc2c(c1)COc1cc(F)ccc1/C2=C(\C)c1noc(=O)[nH]1 [Compound 14d, (E)-3-(1-{3-fluoro-8-[(8-methyl-2-propylimidazo[1,2-a]pyrazin-3-yl)methyl]dibenzo[b,e]oxepin-11(6H)-ylidene}ethyl)-1,2,4-oxadiazol-5(4H)-one]	61.7 mL/min/kg	8.13
C/C(=C1/c2ccc(Cn3c(C4CC(F)(F)C4)nc4ccccc43)cc2COc2cc(F)ccc21)c1noc(=O)[nH]1 [Compound 1j, (E)-3-[1-(8-{[2-(3,3-difluorocyclobutyl)-1H-benzo[d]imidazol-1-yl]methyl}-3-fluorodibenzo[b,e]oxepin-11(6H)-ylidene)ethyl]-1,2,4-oxadiazol-5(4H)-one]	28.3 mL/min/kg	8.14
CC/C(=C1/c2ccc(Cn3c(COC)nc4ccccc43)cc2COc2cc(F)ccc21)c1noc(=O)[nH]1 [Compound 4l, (E)-3-[1-(3-fluoro-8-{[2-(methoxymethyl)-1H-benzo[d]imidazol-1-yl]methyl}dibenzo[b,e]oxepin-11(6H)-ylidene)propyl]-1,2,4-oxadiazol-5(4H)-one]	36.7 mL/min/kg	7.42
COCc1nc2ccccc2n1Cc1ccc2c(c1)COc1cc(F)ccc1/C2=C(\C)c1noc(=O)[nH]1 [Compound 1b, (E)-3-[1-(3-fluoro-8-{[2-(methoxymethyl)-1H-benzo[d]imidazol-1-yl]methyl}dibenzo[b,e]oxepin-11(6H)-ylidene)ethyl]-1,2,4-oxadiazol-5(4H)-one]	31.7 mL/min/kg	7.93
CCCc1nc2ccccc2n1Cc1ccc2c(c1)COc1cc(F)ccc1/C2=C(\C)c1noc(=O)[nH]1 [Compound 1a, (E)-3-(1-{3-fluoro-8-[(2-propyl-1H-benzo[d]imidazol-1-yl)methyl]dibenzo[b,e]oxepin-11(6H)-ylidene}ethyl)-1,2,4-oxadiazol-5(4H)-one]	53.3 mL/min/kg	8.13
C/C(=C1/c2ccc(Cc3c(C)nc4cc(C(F)(F)F)ccn34)cc2COc2cc(F)ccc21)c1noc(=O)[nH]1 [Compound 11b, (E)-3-[1-(3-fluoro-8-{[2-methyl-7-(trifluoromethyl)imidazo[1,2-a]pyridin-3-yl]methyl}dibenzo[b,e]oxepin-11(6H)-ylidene)ethyl]-1,2,4-oxadiazol-5(4H)-one]	35 mL/min/kg	7.86
C/C(=C1/c2ccc(Cn3c(C4CCC4)nc4c(Cl)nccc43)cc2COc2cc(F)ccc21)c1noc(=O)[nH]1 [Compound 3b, (E)-3-(1-{8-[(4-chloro-2-cyclobutyl-1H-imidazo[4,5-c]pyridin-1-yl)methyl]-3-fluorodibenzo[b,e]oxepin-11(6H)-ylidene}ethyl)-1,2,4-oxadiazol-5(4H)-one]	9.5 mL/min/kg	7.64
C/C(=C1/c2ccc(Cn3c(C(C)C)nc(Cl)c3Cl)cc2COc2cc(F)ccc21)c1noc(=O)[nH]1 [Compound 13c, (E)-3-(1-{8-[(4,5-dichloro-2-isopropyl-1H-imidazol-1-yl)methyl]-3-fluorodibenzo[b,e]oxepin-11(6H)-ylidene}ethyl)-1,2,4-oxadiazol-5(4H)-one]	88.3 mL/min/kg	7.40
O=c1[nH]c(/C(F)=C2\c3ccc(Cc4c(C5CC5)nc5c(Cl)cccn45)cc3COc3cc(F)ccc32)no1 [Compound 8n, (Z)-3-({8-[(8-chloro-2-cyclopropylimidazo[1,2-a]pyridin-3-yl)methyl]-3-fluorodibenzo[b,e]oxepin-11(6H)-ylidene}fluoromethyl)-1,2,4-oxadiazol-5(4H)-one]	18.3 mL/min/kg	7.26
CCCc1nc2c(C(N)=O)cccc2n1Cc1ccc2c(c1)COc1cc(F)ccc1/C2=C(\C)c1noc(=O)[nH]1 [Compound 2b, (E)-1-({3-fluoro-11-[1-(5-oxo-4,5-dihydro-1,2,4-oxadiazol-3-yl)ethylidene]-6,11-dihydrodibenzo[b,e]oxepin-8-yl}methyl)-2-propyl-1H-benzo[d]imidazole-4-carboxamide]	26.7 mL/min/kg	7.23
COCc1nc2cc(Cl)ccn2c1Cc1ccc2c(c1)COc1cc(F)ccc1/C2=C(\C)c1noc(=O)[nH]1 [Compound 10e, (E)-3-{1-(8-{[7-chloro-2-(methoxymethyl)imidazo[1,2-a]pyridin-3-yl]methyl}-3-fluorodibenzo[b,e]oxepin-11(6H)-ylidene)ethyl}-1,2,4-oxadiazol-5(4H)-one]	40 mL/min/kg	8.28
C/C(=C1/c2ccc(Cc3c(C4CC4)nc4c(F)cccn34)cc2COc2cc(F)ccc21)c1noc(=O)[nH]1 [Compound 9i, (E)-3-(1-{8-[(2-cyclopropyl-8-fluoroimidazo[1,2-a]pyridin-3-yl)methyl]-3-fluorodibenzo[b,e]oxepin-11(6H)-ylidene}ethyl)-1,2,4-oxadiazol-5(4H)-one]	71.7 mL/min/kg	7.86
